Laboratory results published in patent publication US20250243196A1, “CITRON KINASE INHIBITORS” (The Cleveland Clinic Foundation, priority 2021, published 2025).

Assays:
Assay in all cases: KinaseProfiler panel
Type in all cases: biochemical
Settings in all cases: activity remaining
[1] = target: TAO2(h) (Homo sapiens (Human), UniProt Q9UL54)
[2] = target: CDK12/cyclinK(h) (Homo sapiens (Human), UniProt Q9NYV4); set-up: dose or concentration left out as unconfirmed
[3] = target: IKKε(h) (Homo sapiens (Human), UniProt Q14164); set-up: dose or concentration left out as unconfirmed
[4] = target: SIK(h) (Homo sapiens (Human), UniProt P57059); set-up: dose or concentration left out as unconfirmed
[5] = target: DYRK1B(h) (Homo sapiens (Human), UniProt Q9Y463); set-up: dose or concentration left out as unconfirmed
[6] = target: LRRK2(h) (Homo sapiens (Human), UniProt Q5S007); set-up: dose or concentration left out as unconfirmed
[7] = target: EphA3(h) (Homo sapiens (Human), UniProt P29320); set-up: dose or concentration left out as unconfirmed
[8] = target: PAR-1Bα(h) (Homo sapiens (Human), UniProt Q7KZI7); set-up: dose or concentration left out as unconfirmed
[9] = target: Arg(h) (Homo sapiens (Human), UniProt P42684); set-up: dose or concentration left out as unconfirmed
[10] = target: PKD3(h) (Homo sapiens (Human), UniProt O94806); set-up: dose or concentration left out as unconfirmed
[11] = target: PKCη(h) (Homo sapiens (Human), UniProt P24723); set-up: dose or concentration left out as unconfirmed
[12] = target: MARK1(h) (Homo sapiens (Human), UniProt Q9P0L2); set-up: dose or concentration left out as unconfirmed
[13] = target: DCAMKL1(h) (Homo sapiens (Human), UniProt O15075); set-up: dose or concentration left out as unconfirmed
[14] = target: PKCβII(h) (Homo sapiens (Human), UniProt P05771); set-up: dose or concentration left out as unconfirmed
[15] = target: GRK1(h) (Homo sapiens (Human), UniProt Q15835); set-up: dose or concentration left out as unconfirmed
[16] = target: p70S6K(h) (Homo sapiens (Human), UniProt P23443); set-up: dose or concentration left out as unconfirmed
[17] = target: CK2α1(h) (Homo sapiens (Human), UniProt P68400); set-up: dose or concentration left out as unconfirmed
[18] = target: MELK(h) (Homo sapiens (Human), UniProt Q14680); set-up: dose or concentration left out as unconfirmed
[19] = target: IRAK4(h) (Homo sapiens (Human), UniProt Q9NWZ3); set-up: dose or concentration left out as unconfirmed
[20] = target: PKCμ(h) (Homo sapiens (Human), UniProt Q15139); set-up: dose or concentration left out as unconfirmed
[21] = target: CDK2/cyclinA(h) (Homo sapiens (Human), UniProt P24941); set-up: dose or concentration left out as unconfirmed
[22] = target: STK16(h) (Homo sapiens (Human), UniProt O75716); set-up: dose or concentration left out as unconfirmed
[23] = target: STK32A(h) (Homo sapiens (Human), UniProt Q8WU08); set-up: dose or concentration left out as unconfirmed
[24] = target: TTK(h) (Homo sapiens (Human), UniProt P33981); set-up: dose or concentration left out as unconfirmed
[25] = target: MST1(h) (Homo sapiens (Human), UniProt Q13043); set-up: dose or concentration left out as unconfirmed
[26] = target: CDKL1(h) (Homo sapiens (Human), UniProt Q00532); set-up: dose or concentration left out as unconfirmed
[27] = target: TrkC(h) (Homo sapiens (Human), UniProt Q16288); set-up: dose or concentration left out as unconfirmed
[28] = target: STK33(h) (Homo sapiens (Human), UniProt Q9BYT3); set-up: dose or concentration left out as unconfirmed
[29] = target: CaMKIγ(h) (Homo sapiens (Human), UniProt Q96NX5); set-up: dose or concentration left out as unconfirmed
[30] = target: JNK3(h) (Homo sapiens (Human), UniProt P53779); set-up: dose or concentration left out as unconfirmed
[31] = target: CaMKIV(h) (Homo sapiens (Human), UniProt Q16566); set-up: dose or concentration left out as unconfirmed
[32] = target: Lck(h) (Homo sapiens (Human), UniProt P06239); set-up: dose or concentration left out as unconfirmed
[33] = target: MEK2(h) (Homo sapiens (Human), UniProt P36507); set-up: dose or concentration left out as unconfirmed

Chain of CaMKIV(h) (Q16566 whole entry): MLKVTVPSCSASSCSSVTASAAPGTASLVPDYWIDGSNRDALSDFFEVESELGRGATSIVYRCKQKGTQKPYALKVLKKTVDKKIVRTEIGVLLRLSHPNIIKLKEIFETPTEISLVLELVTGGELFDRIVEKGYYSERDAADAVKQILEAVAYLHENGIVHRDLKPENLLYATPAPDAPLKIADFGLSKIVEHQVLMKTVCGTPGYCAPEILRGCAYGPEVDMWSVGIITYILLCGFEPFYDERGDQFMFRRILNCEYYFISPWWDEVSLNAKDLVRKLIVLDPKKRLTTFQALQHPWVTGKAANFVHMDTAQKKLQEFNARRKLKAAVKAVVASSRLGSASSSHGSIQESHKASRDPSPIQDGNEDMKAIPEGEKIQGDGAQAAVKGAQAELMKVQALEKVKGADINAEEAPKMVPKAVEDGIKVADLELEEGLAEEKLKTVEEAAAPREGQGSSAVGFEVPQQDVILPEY
Chain of PKCβII(h) (P05771 other isoform, or with tags, fused parts or gaps): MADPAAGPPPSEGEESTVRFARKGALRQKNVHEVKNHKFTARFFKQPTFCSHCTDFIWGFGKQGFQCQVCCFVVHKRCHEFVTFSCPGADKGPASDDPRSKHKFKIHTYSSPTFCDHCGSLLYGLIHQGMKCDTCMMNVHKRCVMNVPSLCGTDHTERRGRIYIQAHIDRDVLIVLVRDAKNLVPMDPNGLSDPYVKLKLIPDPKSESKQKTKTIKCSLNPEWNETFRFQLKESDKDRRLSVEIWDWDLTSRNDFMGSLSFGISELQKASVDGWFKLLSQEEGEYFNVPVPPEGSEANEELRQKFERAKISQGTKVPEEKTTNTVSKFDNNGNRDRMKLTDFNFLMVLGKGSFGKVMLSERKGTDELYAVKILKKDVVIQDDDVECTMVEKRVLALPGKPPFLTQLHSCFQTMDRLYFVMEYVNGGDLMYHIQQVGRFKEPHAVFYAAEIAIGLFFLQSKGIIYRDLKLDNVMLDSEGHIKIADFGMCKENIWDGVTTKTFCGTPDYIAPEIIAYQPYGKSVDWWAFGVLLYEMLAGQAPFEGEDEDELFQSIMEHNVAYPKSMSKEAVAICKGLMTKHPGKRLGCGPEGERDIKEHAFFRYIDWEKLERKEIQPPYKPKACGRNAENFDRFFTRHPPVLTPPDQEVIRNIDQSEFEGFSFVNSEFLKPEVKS
Chain of MST1(h) (Q13043 whole entry): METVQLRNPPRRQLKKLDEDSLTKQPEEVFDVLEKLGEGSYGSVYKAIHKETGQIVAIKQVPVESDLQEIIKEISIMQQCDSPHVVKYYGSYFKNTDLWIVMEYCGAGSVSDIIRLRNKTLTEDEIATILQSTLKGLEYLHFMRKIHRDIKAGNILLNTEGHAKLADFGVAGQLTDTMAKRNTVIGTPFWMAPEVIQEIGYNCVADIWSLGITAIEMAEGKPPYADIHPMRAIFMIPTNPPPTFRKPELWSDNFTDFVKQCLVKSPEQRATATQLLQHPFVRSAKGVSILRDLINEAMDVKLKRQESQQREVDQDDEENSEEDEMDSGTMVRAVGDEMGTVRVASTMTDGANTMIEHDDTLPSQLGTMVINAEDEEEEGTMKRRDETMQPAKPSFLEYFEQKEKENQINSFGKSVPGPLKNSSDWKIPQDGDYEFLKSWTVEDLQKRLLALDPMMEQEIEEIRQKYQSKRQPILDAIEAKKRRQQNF
Chain of Arg(h) (P42684 whole entry): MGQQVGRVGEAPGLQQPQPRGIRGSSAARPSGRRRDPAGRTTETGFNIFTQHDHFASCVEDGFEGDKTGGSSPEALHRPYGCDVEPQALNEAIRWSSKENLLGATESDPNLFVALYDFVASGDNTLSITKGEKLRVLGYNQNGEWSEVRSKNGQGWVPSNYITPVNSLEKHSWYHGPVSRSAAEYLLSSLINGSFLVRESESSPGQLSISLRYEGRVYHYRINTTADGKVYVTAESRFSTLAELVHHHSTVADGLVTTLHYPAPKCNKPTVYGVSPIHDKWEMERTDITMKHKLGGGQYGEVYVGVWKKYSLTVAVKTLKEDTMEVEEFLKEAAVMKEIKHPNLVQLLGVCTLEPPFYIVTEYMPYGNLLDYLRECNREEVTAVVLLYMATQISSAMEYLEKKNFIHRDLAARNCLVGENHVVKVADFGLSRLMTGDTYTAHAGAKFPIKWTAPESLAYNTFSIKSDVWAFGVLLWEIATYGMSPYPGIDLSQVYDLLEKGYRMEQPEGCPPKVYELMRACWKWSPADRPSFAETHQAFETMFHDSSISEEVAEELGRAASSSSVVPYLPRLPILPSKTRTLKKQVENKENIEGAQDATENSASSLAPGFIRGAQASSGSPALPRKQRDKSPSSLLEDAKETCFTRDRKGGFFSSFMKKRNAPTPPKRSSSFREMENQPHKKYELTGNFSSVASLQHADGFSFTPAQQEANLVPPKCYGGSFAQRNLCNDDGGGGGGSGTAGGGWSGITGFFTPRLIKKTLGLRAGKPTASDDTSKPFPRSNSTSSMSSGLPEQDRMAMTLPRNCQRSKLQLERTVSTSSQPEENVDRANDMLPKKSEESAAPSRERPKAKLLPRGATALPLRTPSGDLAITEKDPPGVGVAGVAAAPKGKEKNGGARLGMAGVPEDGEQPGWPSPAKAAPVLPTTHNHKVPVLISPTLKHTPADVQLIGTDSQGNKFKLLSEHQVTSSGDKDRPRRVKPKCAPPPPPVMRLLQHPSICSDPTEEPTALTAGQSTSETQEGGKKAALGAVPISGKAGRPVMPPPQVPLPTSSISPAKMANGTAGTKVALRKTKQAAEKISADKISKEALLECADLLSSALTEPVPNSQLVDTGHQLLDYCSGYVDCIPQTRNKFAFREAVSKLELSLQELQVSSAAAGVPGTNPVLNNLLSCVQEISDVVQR
Chain of PKCμ(h) (Q15139 whole entry): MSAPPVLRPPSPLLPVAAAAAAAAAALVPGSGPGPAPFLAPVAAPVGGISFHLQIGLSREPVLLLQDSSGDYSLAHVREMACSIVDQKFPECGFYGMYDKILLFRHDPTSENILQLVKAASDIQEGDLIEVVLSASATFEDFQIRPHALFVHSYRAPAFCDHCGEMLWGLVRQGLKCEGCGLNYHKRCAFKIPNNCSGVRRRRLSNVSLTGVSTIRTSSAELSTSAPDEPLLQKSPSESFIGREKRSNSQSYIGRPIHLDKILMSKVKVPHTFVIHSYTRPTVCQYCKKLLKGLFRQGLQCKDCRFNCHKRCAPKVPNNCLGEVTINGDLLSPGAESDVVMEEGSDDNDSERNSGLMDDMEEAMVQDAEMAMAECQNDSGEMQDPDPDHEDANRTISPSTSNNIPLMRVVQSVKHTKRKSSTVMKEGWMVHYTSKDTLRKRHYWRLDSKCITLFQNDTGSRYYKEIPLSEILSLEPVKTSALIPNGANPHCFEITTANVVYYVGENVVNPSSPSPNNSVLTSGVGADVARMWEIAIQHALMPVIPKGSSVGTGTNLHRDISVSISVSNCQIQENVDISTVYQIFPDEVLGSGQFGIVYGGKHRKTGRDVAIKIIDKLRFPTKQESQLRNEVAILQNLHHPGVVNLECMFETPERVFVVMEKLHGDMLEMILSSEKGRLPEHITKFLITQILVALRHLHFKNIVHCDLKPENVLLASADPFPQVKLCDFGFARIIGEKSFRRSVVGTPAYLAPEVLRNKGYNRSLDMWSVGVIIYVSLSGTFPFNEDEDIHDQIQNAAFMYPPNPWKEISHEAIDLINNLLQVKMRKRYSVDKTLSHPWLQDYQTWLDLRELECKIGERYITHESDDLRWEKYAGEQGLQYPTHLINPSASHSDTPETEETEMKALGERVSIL
Chain of TAO2(h) (Q9UL54 whole entry): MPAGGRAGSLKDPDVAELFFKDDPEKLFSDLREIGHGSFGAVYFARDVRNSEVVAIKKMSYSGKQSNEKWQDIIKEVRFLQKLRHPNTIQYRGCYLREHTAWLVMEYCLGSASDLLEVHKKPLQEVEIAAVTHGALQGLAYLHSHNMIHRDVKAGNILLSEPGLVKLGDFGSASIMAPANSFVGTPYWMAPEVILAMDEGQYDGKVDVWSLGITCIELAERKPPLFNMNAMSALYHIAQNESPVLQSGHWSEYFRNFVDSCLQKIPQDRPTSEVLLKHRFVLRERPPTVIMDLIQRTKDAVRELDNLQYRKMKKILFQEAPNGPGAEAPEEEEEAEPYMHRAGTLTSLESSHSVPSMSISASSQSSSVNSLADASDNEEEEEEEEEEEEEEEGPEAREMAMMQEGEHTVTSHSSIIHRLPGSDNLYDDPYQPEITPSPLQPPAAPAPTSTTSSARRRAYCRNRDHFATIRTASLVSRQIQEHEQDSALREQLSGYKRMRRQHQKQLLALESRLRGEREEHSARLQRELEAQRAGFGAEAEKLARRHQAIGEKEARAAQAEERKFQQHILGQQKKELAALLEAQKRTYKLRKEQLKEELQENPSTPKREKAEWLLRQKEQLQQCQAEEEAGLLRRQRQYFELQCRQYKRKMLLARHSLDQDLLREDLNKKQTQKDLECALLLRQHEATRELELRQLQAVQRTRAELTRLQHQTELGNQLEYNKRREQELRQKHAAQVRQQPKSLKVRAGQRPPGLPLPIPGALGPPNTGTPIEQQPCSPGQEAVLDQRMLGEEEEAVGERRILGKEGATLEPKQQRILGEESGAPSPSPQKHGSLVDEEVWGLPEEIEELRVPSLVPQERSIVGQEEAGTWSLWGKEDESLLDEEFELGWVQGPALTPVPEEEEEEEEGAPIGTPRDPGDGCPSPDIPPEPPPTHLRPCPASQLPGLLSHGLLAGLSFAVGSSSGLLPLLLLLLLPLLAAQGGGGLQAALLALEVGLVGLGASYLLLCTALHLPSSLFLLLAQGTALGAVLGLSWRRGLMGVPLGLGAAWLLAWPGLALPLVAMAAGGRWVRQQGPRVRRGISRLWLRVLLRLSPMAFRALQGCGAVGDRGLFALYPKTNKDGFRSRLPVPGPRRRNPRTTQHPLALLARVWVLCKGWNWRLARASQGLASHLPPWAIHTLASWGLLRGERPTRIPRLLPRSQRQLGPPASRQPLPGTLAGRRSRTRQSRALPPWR

Cc1cc2c(-c3ccc(NC(=O)[C@H](N)CC(C)(C)C)cc3C)ccnc2[nH]1 [Compound F-90, (2R)-2-Amino-4,4-dimethyl-N-[3-methyl-4-(2-methyl-1H-pyrrolo[2,3-b]pyridin-4-yl)phenyl]pentanamide]
% Activity [1]: 90%
% Activity [2]: 89%
% Activity [3]: 87%
% Activity [4]: 105%
% Activity [5]: 108%
% Activity [6]: 100%
% Activity [7]: 79%
% Activity [8]: 88%
% Activity [9]: 72%
% Activity [10]: 97%
% Activity [11]: 118%
% Activity [12]: 106%
% Activity [13]: 95%
% Activity [14]: 87%
% Activity [15]: 86%
% Activity [16]: 93%
% Activity [17]: 112%
% Activity [18]: 82%
% Activity [19]: 90%
% Activity [20]: 109%
% Activity [21]: 87%
% Activity [22]: 94%
% Activity [23]: 90%
% Activity [24]: 102%
% Activity [25]: 76%
% Activity [26]: 99%
% Activity [27]: 86%
% Activity [28]: 98%
% Activity [29]: 110%
% Activity [30]: 88%
% Activity [31]: 99%
% Activity [32]: 86%
% Activity [33]: 92%
